For one test, the target named is mutant STAT3 (Homo sapiens, UniProt P40763, D661Y). Nature of the test: STAT3 MSD assay, mutant STAT3 cell lines. It counts as cell-based. The conditions noted are these: read-out: DC50, mutant STAT3; mutant STAT3 heme cell lines, FIG. 9. The procedure:
100 nl of compounds were added into the intermediate plate with Echo (Labcyte 550) from source plate containing a 3-fold serial dilution from top concentration of 1 mM. Cells were seeded into 96-well plates (4×10^4 cells/well/100 ul media), mixed well, and incubated for 24 hours. The media was aspirated from the cultures and 60 μL pre-chilled PIPA lysis buffer (Boston BioProducts BP-115D) with protease/phosphatase inhibitor (Roche 05892791001/Roche 04906837001) was added into the well to lyze the cells for 20 minutes at 4° C. The MSD plate (L15XA) was coated with 2 ug/ml capture antibody (ab119352) in PBS and incubated at 4° C. overnight. The next day, the plate was washed three times with TBST (CST #99975), 150 μL/well. MSD plates were blocked with 150 μL blocking buffer per well and shaken for 1 hr at RT and 600 rpm. The blocking buffer was 3% Blocker A (MSD, R93BA-4) in TBST. The MSD plate was washed three times with 150 μL/well of TBST and 70 μL cell lysate was added into the well and shaken for 1 hour at RT and 600 rpm. […] The MSD plate washed three times with 150 μL/well of TBST and added 150 μL/well of 2×MSD reading buffer diluted from 4× (MSD, R92TC-2) with water. Lastly the MSD instrument was read.

Test [1] has as its target T1, mutant STAT3 (STAT D661Y) (Homo sapiens, UniProt P40763, D661Y).
T1 construct: endogenous in cells; host or cells: HDLM-2
The test can be described thus: degradation of mutant STAT3 in HDLM-2 cell lines, dose response. The conditions noted are these: dose response curve. The format is cell-based.

For another test, the system named is A3/KAW cells. Nature of the test: CellTiter-Glo cell viability, A3/KAW. The format is cell-based. The conditions noted are these: DLBCL.
For test [2], the target named is T2, STAT3 (Homo sapiens, UniProt P40763). Nature of the test: Quantitation of STAT3 degradation in A549 cells by Western blot. The format is cell-based. Also on record: expressed in transfected cells; host or cells: A549. The conditions noted are these: read-out: A549 DC50, 24 hours, tested up to 30 μM or 10 μM. An outline of the steps: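 A549 cells treated 24 h at 37° C with compound at 30, 10, 3, 1, 0.3 μM or DMSO; RIPA lysates analysed by SDS-PAGE/Western blot for total STAT3, β-actin as loading control, LI-COR fluorescence read-out. DC50 derived by sigmoidal fit of dose-dependent degradation.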
T2 sequence (P40763 whole entry): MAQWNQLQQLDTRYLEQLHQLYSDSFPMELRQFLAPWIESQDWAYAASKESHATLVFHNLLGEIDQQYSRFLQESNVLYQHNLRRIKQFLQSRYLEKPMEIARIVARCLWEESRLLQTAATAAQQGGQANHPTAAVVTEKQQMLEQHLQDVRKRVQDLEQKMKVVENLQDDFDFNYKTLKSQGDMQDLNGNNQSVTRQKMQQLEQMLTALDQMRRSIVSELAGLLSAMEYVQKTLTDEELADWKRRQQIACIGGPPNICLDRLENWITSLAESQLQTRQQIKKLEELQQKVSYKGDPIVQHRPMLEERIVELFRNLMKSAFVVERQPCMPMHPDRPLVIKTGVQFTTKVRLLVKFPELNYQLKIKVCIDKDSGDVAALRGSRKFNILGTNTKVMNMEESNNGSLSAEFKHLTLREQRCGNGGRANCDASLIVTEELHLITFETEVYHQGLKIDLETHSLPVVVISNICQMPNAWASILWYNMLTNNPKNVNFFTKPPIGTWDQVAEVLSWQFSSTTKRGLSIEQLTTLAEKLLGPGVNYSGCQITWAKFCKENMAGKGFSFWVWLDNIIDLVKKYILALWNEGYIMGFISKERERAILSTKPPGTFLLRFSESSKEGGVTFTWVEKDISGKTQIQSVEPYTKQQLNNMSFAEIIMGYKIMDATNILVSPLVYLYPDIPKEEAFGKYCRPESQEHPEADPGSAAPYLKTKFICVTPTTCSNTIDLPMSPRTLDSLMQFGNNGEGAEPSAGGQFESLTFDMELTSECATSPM

In test [3] the target is T2, STAT3. The test can be described thus: Fluorescence polarization assay, STAT3 binding. The conditions noted are these: FIG. 1.
Test [4] relates to STAT3-degrader-E3 ligase ternary complex. The test can be described thus: AlphaLISA assays, ternary complex formation and STAT3 ubiquitination. It counts as biochemical. The conditions noted are these: FIG. 2.
Test [5] deals with T2, STAT3. Nature of the test: STAT3 ubiquitination in A549 lysates (FIG. 2B). It counts as cell-based. Also on record: expressed in transfected cells; host or cells: A549.
The test system of another test is ternary complex. Nature of the test: AlphaLISA assay of ternary complex formation (FIG. 2A). The format is binding.
The next test has as its system E3 ligase. The test can be described thus: Fluorescence polarization assay, E3 ligase binding. The conditions noted are these: FIG. 1.

The record followed here is US12077555B2, “STAT degraders and uses thereof” (Kymera Therapeutics, Inc., priority 2019, dated 2024).

T1 sequence (P40763 whole entry D661Y): as the sequence (P40763 whole entry) above, with D661Y counted along it
mutant STAT3, sequence (P40763 2-770 D661Y): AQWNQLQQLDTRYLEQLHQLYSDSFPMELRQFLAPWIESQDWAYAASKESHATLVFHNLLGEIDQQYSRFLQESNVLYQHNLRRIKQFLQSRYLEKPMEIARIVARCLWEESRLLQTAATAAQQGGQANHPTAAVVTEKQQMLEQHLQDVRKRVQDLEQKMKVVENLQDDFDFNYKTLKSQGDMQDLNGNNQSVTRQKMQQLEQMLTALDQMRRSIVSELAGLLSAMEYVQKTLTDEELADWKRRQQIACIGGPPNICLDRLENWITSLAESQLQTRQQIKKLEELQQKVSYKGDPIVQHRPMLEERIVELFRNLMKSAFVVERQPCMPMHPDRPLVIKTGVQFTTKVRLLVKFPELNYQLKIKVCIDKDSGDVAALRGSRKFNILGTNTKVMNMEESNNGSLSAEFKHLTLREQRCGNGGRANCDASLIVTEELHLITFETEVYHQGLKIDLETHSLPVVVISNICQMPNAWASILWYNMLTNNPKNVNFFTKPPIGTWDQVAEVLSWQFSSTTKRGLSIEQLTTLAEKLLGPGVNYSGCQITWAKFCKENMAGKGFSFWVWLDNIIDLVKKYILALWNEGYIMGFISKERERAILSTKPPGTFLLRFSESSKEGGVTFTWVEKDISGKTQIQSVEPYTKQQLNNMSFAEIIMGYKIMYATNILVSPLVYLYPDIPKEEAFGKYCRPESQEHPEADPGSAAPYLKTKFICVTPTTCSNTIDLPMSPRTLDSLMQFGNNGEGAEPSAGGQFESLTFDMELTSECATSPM

For the compound `NC(=O)CC[C@H](NC(=O)[C@@H]1CC[C@@H]2CCN(C(=O)CCCCCC#Cc3cccc4c3CN(C3CCC(=O)NC3=O)C4=O)C[C@H](NC(=O)c3cc4cc(C(=O)P(=O)(O)O)ccc4[nH]3)C(=O)N21)C(=O)NC(c1ccccc1)c1ccccc1` (stereo partly drawn) [Compound I-111, diammonium 2-[[(5S,8S,10aR)-8-[[(1S)-3-carbamoyl-1-(diphenylmethylcarbamoyl)propyl]carbamoyl]-3-[8-[2-(2,6-dioxopiperidin-3-yl)-1-oxo-3H-isoindol-4-yl]oct-7-ynoyl]-6-oxo-octahydropyrrolo[1,2-a][1,5]diazocin-5-yl]carbamoyl]-1H-indole-5-carbonylphosphonate], the DC50 on mutant STAT3 is 68 nM; at STAT3 [2], less than 30000 nM. In addition, the “degradation of mutant STAT3 (STAT D661Y)” value in test [1] is given as “degrading mutant STAT3”. Besides, the concentration for half-maximal inhibition (IC50) in the test with A3/KAW cells (96 h, Day 4, read-out: CTG, IC50 μM, Day 4) is 1.9 µM. Also, the “CTG (% Max inh), Day 4” value in the test with A3/KAW cells is reported as “(50-55) %”.
On to `C/C(=C\C(=O)N[C@H]1CCc2cccc3c2N(C1=O)[C@H](C(=O)N[C@@H](CCC(N)=O)[C@@H](C)OCc1ccc(CCCCC(=O)N[C@H](C(=O)N2C[C@H](O)C[C@H]2C(=O)NCc2ccc(-c4scnc4C)cc2)C(C)(C)C)cc1)C3)c1ccc(C(F)(F)P(=O)(O)O)cc1` [Compound I-1, [4-[(1E)-1-[[(2S,11S)-2-[[(3S,4R)-1-carbamoyl-4-[[4-(4-[[(2S)-1-[(2S,4R)-4-hydroxy-2-([[4-(4-methyl-1,3-thiazol-5-yl)phenyl]methyl]carbamoyl)pyrrolidin-1-yl]-3,3-dimethyl-1-oxobutan-2-yl]carbamoyl]butyl)phenyl]methoxy]pentan-3-yl]carbamoyl]-12-oxo-1-azatricyclo[6.4.1.0^[4,13]]trideca-4(13),5,7-trien-11-yl]carbamoyl]prop-1-en-2-yl]phenyl]difluoromethylphosphonic acid], for which, at STAT3 [3], the “binding to STAT3” value is “binds”. In addition, in test [4], the STAT3 ubiquitination entry is “promotes” and the “formation of the STAT3-degrader-E3 ligase ternary complex” value is listed as “promotes the formation of the STAT3-degrader-E3 ligase ternary complex”. Also, the STAT3 ubiquitination entry at STAT3 [5] is given as “STAT3 ubiquitination”. In addition, in the test on ternary complex, the ternary complex formation result is recorded as “efficient ternary complex formation”. Moreover, the DC50 at STAT3 [2] was less than 30000 nM. Further, in the test with E3 ligase, the “binding to E3 ligase” value is on record as “binds”.
